“Also recorded” adds a separate entry of the source.
Assays:
HCT116 = assay: CellTiter-Blue cell-based survival/proliferation assay, HCT116; details: Homo sapiens, HCT-116; HCT116 colorectal tumor cell line, 48 h
Method in brief: (§1)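 Compounds, diluted tenfold serially over 0–10 μM, are applied to 1·10^4 seeded cells per well for 48 h at 37 °C. Resorufin formed during a further 4 h with CellTiter-Blue is detected by fluorescence emission at 590 nm.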

BT20 = assay: CellTiter-Blue cell-based survival/proliferation assay, BT20; details: Homo sapiens, BT-20; BT20 breast tumor cell line, 48 h
Method in brief: as §1

HUT78 = assay: CellTiter-Blue cell-based survival/proliferation assay, HUT78; details: Homo sapiens, Lymphoma cell line HUT78, 48 h, read-out: Anti-tumoral activity (measured IC50) HUT78
Method in brief: as §1

A375 = assay: CellTiter-Blue cell-based survival/proliferation assay, A375; details: Homo sapiens, A-375; A375 melanoma cell line, 48 h
Method in brief: as §1

HGC27 = assay: CellTiter-Blue cell-based survival/proliferation assay, HGC27; details: Homo sapiens, HGC-27; HGC27 stomach tumor cell line, 48 h
Method in brief: as §1

SW579 = assay: CellTiter-Blue cell-based survival/proliferation assay, SW579; details: Homo sapiens; SW579 head & neck tumor cell line, 48 h
Method in brief: as §1

A498 = assay: CellTiter-Blue cell-based survival/proliferation assay, A498; details: Homo sapiens; A498 kidney tumor cell line, 48 h
Method in brief: as §1

H1299 = assay: CellTiter-Blue cell-based survival/proliferation assay, H1299; details: Homo sapiens, NCI-H1299; H1299 lung tumor cell line, 48 h
Method in brief: as §1

OPM2 = assay: CellTiter-Blue cell-based survival/proliferation assay, OPM2; details: Homo sapiens, OPM-2, Myeloma cell line OPM2, 48 h, read-out: Anti-tumoral activity (measured IC50) OPM2
Method in brief: as §1

HEP2 = assay: CellTiter-Blue cell-based survival/proliferation assay, HEP2; details: Homo sapiens, HEp-2; HEP2 head & neck tumor cell line, 48 h
Method in brief: as §1

TOV112D = assay: CellTiter-Blue cell-based survival/proliferation assay, TOV112D; details: Homo sapiens; TOV112D ovary tumor cell line, 48 h
Method in brief: as §1

A4513 = assay: CellTiter-Blue cell-based survival/proliferation assay, A4513; details: Homo sapiens; A4513 Ewing cell line, 48 h
Method in brief: as §1

BXPC3 = assay: CellTiter-Blue cell-based survival/proliferation assay, BXPC3; details: Homo sapiens, BXPC-3; BXPC3 pancreas tumor cell line, 48 h
Method in brief: as §1

MDAMB231 = assay: CellTiter-Blue cell-based survival/proliferation assay, MDAMB231; details: Homo sapiens, MDA-MB-231; MDAMB231 breast tumor cell line, 48 h
Method in brief: as §1

HEPG2 = assay: CellTiter-Blue cell-based survival/proliferation assay, HEPG2; details: Homo sapiens; HEPG2 liver tumor cell line, 48 h
Method in brief: as §1

AGS = assay: CellTiter-Blue cell-based survival/proliferation assay, AGS; details: Homo sapiens; AGS stomach tumor cell line, 48 h
Method in brief: as §1

MELWO = assay: CellTiter-Blue cell-based survival/proliferation assay, MELWO; details: Homo sapiens; MEL_WO melanoma cell line, 48 h
Method in brief: as §1

MESSA = assay: CellTiter-Blue cell-based survival/proliferation assay, MESSA; details: Homo sapiens, MES-SA; MESSA ovary tumor cell line, 48 h
Method in brief: as §1

REC1 = assay: CellTiter-Blue cell-based survival/proliferation assay, REC1; details: Homo sapiens, Lymphoma cell line REC1, 48 h, read-out: Anti-tumoral activity (measured IC50) REC1
Method in brief: as §1

PANC1 = assay: CellTiter-Blue cell-based survival/proliferation assay, PANC1; details: Homo sapiens, PANC-1; PANC_1 pancreas tumor cell line, 48 h
Method in brief: as §1

A549 = assay: CellTiter-Blue cell-based survival/proliferation assay, A549; details: Homo sapiens; A549 lung tumor cell line, 48 h
Method in brief: as §1

ACHN = assay: CellTiter-Blue cell-based survival/proliferation assay, ACHN; details: Homo sapiens; ACHN kidney tumor cell line, 48 h
Method in brief: as §1

U2OS = assay: CellTiter-Blue cell-based survival/proliferation assay, U2OS; details: Homo sapiens; U2OS osteosarcoma cell line, 48 h
Method in brief: as §1

DLD1 = assay: CellTiter-Blue cell-based survival/proliferation assay, DLD1; details: Homo sapiens, DLD-1; DLD_1 colorectal tumor cell line, 48 h
Method in brief: as §1

U87MG = assay: CellTiter-Blue cell-based survival/proliferation assay, U87MG; details: Homo sapiens, U-87 MG; U87_MG glioblastoma cell line, 48 h
Method in brief: as §1

U118 = assay: CellTiter-Blue cell-based survival/proliferation assay, U118; details: Homo sapiens; U118 glioblastoma cell line, 48 h
Method in brief: as §1

KARPAS299 = assay: CellTiter-Blue cell-based survival/proliferation assay, KARPAS299; details: Homo sapiens, KARPAS-299, Lymphoma cell line KARPAS299, 48 h, read-out: Anti-tumoral activity (measured IC50) KARPAS299
Method in brief: as §1

DU145 = assay: CellTiter-Blue cell-based survival/proliferation assay, DU145; details: Homo sapiens, DU-145; DU145 prostate tumor cell line, 48 h
Method in brief: as §1

CALU6 = assay: CellTiter-Blue cell-based survival/proliferation assay, CALU6; details: Homo sapiens, Calu-6; CALU6 lung tumor cell line, 48 h
Method in brief: as §1

[1] = tested on: human kinases (456 kinases); assay: KINOMEscan in vitro kinase profiling; assay type: binding; details: for Interaction with the 456 kinases tested: screened at 1 μM; for Number of hits/number of kinases, S1: S(1): kinases with % Ctrl<1; for S-score, S1: S(1)=(number of kinases with % Ctrl<1)/(number of kinases tested); for Number of hits/number of kinases, S10: S(10): kinases with % Ctrl<10; for S-score, S10: S(10)=(number of kinases with % Ctrl<10)/(number of kinases tested); for Kinase targets, S1: kinases with % Ctrl<1
Protocol: An in vitro kinase profiling was conducted in order to evidence the absence of protein kinase inhibition by the compounds of the invention.
DiscoveRx (Ambit Biosciences) has developed a high-throughput system (KINOMEscan™) for screening of compounds against large numbers of human kinases (456 kinases).
The compounds of the invention were screened at the concentration of 1 μM, and results for primary screen binding interactions were reported as percent control (% Ctrl), where lower numbers indicate stronger hits. DMSO is used as a negative control (100% Ctrl) while a high affinity compound is used as a positive control (0% Ctrl). % Ctrl is calculated as follow:
[formula] Selectivity Score or S-score is a quantitative measure of compound selectivity. It is calculated by dividing the number of kinases that compounds bind to by the total number of distinct kinases tested, excluding mutant variants. S(10)=(number of kinases with % Ctrl<10)/(number of kinases tested), S(1)=(number of kinases with % Ctrl<1)/(number of kinases tested).

PC3 = assay: CellTiter-Blue cell-based survival/proliferation assay, PC3; details: Homo sapiens, PC-3; PC3 prostate tumor cell line, 48 h
Method in brief: as §1

PLCPRF5 = assay: CellTiter-Blue cell-based survival/proliferation assay, PLCPRF5; details: Homo sapiens, PLC-PRF-5; PLC_PRF5 liver tumor cell line, 48 h
Method in brief: as §1

CLS354 = assay: CellTiter-Blue cell-based survival/proliferation assay, CLS354; details: Homo sapiens, CLS-354; CLS354_4 head & neck tumor cell line, 48 h
Method in brief: as §1

HL60 = assay: CellTiter-Blue cell-based survival/proliferation assay, HL60; details: Homo sapiens, HL-60, Leukemia cell line HL60, 48 h, read-out: Anti-tumoral activity (measured IC50) HL60
Method in brief: as §1

Row | SMILES | IC50 (HCT116) [nM] | IC50 (BT20) [nM] | IC50 (HUT78) [nM] | IC50 (A375) [nM] | IC50 (HGC27) [nM] | IC50 (SW579) [nM] | IC50 (A498) [nM] | IC50 (H1299) [nM] | IC50 (OPM2) [nM] | IC50 (HEP2) [nM] | IC50 (TOV112D) [nM] | IC50 (A4513) [nM] | IC50 (BXPC3) [nM] | IC50 (MDAMB231) [nM] | IC50 (HEPG2) [nM] | IC50 (AGS) [nM] | IC50 (MELWO) [nM] | IC50 (MESSA) [nM] | IC50 (REC1) [nM] | IC50 (PANC1) [nM] | also measured
1 | CCOCc1ccc(C)c(Nc2nc(-c3ccc(N4CCNC4=O)cc3)cs2)c1 [Example 003, 1-{4-[2-(5-Ethoxymethyl-(2-methyl-phenylamino))-thiazol-4-yl]-phenyl}-imidazolidin-2-one] | 500 to 1000 | > 1000 | ≤ 100 | ≤ 100 | > 1000 | > 1000 | ≤ 100 | > 1000 | ≤ 100 | > 1000 | ≤ 100 | ≤ 100 | ≤ 100 | ≤ 100 | > 1000 | > 1000 | ≤ 100 | 100 to 500 | ≤ 100 | > 1000 | IC50 (A549): > 1000 nM; IC50 (ACHN): ≤ 100 nM; IC50 (U2OS): > 1000 nM; IC50 (DLD1): ≤ 100 nM; IC50 (U87MG): > 1000 nM; IC50 (U118): > 1000 nM; IC50 (KARPAS299): ≤ 100 nM; IC50 (DU145): > 1000 nM; IC50 (CALU6): > 1000 nM; Interaction with the 456 kinases tested [1]: do not efficiently interact; Number of hits/number of kinases, S1 ([1]; tested at 1 μM): 1/456; S-score, S1 ([1]; tested at 1 μM): 0.002; Number of hits/number of kinases, S10 ([1]; tested at 1 μM): 4/456; S-score, S10 ([1]; tested at 1 μM): 0.009; Kinase targets, S1 ([1]; tested at 1 μM): PDGFRB; Kinase targets, S10 ([1]; tested at 1 μM, kinases with % Ctrl<10): KIT, KIT V559D,; also recorded: KIT L576P; IC50 (PC3): ≤ 100 nM; IC50 (PLCPRF5): > 1000 nM; IC50 (CLS354): ≤ 100 nM; IC50 (HL60): ≤ 100 nM
2 | CCOCc1ccc(C)c(Nc2ncc(-c3ccc(N4CCNC4=O)cc3)o2)c1 [Example 006, 1-{4-[2-(5-Ethoxymethyl-(2-methyl-phenylamino))-oxazol-5-yl]-phenyl}-imidazolidin-2-one] | > 1000 | 100 to 500 | ≤ 100 | ≤ 100 | > 1000 | > 1000 | 100 to 500 | > 1000 | ≤ 100 | > 1000 | ≤ 100 | ≤ 100 | ≤ 100 | ≤ 100 | > 1000 | > 1000 | ≤ 100 | > 1000 | ≤ 100 | > 1000 | IC50 (A549): > 1000 nM; IC50 (ACHN): ≤ 100 nM; IC50 (U2OS): 100 to 500 nM; IC50 (DLD1): ≤ 100 nM; IC50 (U87MG): > 1000 nM; IC50 (U118): > 1000 nM; IC50 (KARPAS299): ≤ 100 nM; IC50 (DU145): > 1000 nM; IC50 (CALU6): > 1000 nM; Interaction with the 456 kinases tested [1]: do not efficiently interact; Number of hits/number of kinases, S1 ([1]; tested at 1 μM): 0/456; S-score, S1 ([1]; tested at 1 μM): 0.000; Number of hits/number of kinases, S10 ([1]; tested at 1 μM): 0/456; S-score, S10 ([1]; tested at 1 μM): 0.000; Kinase targets, S1 ([1]; tested at 1 μM): None; IC50 (PC3): ≤ 100 nM; IC50 (PLCPRF5): > 1000 nM; IC50 (CLS354): ≤ 100 nM; IC50 (HL60): ≤ 100 nM

From patent US10570122B2, “Compounds with anti-tumoral activity” (AB Science, priority 2015, dated 2020)
